The inhibition is the share of the control response that was lost under treatment.

Experimental findings from patent US8247449B2, “Methods and compositions for the treatment of asthma” (Wake Forest University, priority 1998, dated 2012) are described below.

The test system of data set [1] is leukotriene generation by stimulated neutrophils. The data set can be described thus: Inhibition of leukotriene generation in A23187-stimulated neutrophils in vitro. The format is cell-based, human. Particulars: neutrophils from unsupplemented volunteers, ionophore A23187, read-out: IC50 of inhibition of leukotriene generation (LTB4 and 20-OH LTB4). How it is done:
(§1) Leukotrienes are separated by reverse phase HPLC utilizing an Ultrasphere ODS column (2.1 mm.×250 mm: Rainin Instrument Co, Woburn, Mass.) eluted with methanol/water/phosphoric acid (550:450:0.2 v/v, pH 5.7) as the mobile phase at 0.3 ml/min. After 5 min the methanol composition of the mobile phase is increased from 55% to 100% over a 20 min period. The mole quantities of each leukotriene are determined by examining its UV optical density at 270 nm. Individual peaks are integrated and their recoveries normalized by comparing these integrated areas to that of PGB2 added as an internal standard.
It is contemplated that neutrophils may also produce 8-hydroxy-9,11,14 […] from DGLA. […] Studies were also designed to examine whether 15-HETrE produced by neutrophils might influence LTB4 generation. […] Neutrophils were isolated from normal unsupplemented volunteers and were treated with various concentrations of 15-HETrE and then stimulated with ionophore A23187.

The subject of data set [2] is Δ^5 desaturase in human liver cell line HEP-G2. The data set can be described thus: Inhibition of DGLA conversion to AA (Δ5 desaturase) in HEP-G2 liver cells. The format is cell-based. As to conditions: HepG2, HEP-G2, EPA at 50 μM added with DGLA, read-out: maximum inhibition of DGLA conversion to AA. An excerpt: This study illustrates the effectiveness of adding a Δ^5 desaturase inhibitor in conjunction with GLA in order to reduce serum arachidonic acid.

The test system of data set [3] is neutrophils. Particulars: 3.0 g/day GLA. An excerpt:
A final set of studies measured changes in the capacity of neutrophils to generate PAF ex vivo before and after GLA supplementation.

Data set [4] has as its system atopic asthmatics. An excerpt: Clinical data on each patient is entered into a database consisting of the following elements. Demographic data (age, sex, race, smoking history), and the data elements used to fulfill the above diagnostic criteria, spirometric data, presence of atopy (positive “prick” skin testing to respirable antigens), presence of LAR to inhaled antigen, and presence of allergic rhinoconjunctivitis. • Allergen skin testing—Atopic asthmatic subjects are identified by skin testing using the skin prick method at a 1:10 (wt/vol) dilution of 20 stock antigen solutions (Greer Laboratories, Lenoir, N.C.). Subjects must not be receiving immunotherapy, nor may they be treated with systemic corticosteroids for a minimum of 4 wk. Short acting antihistamines are avoided for at least 24 h and long acting for at least 7 days. Atopic subjects are defined as those with a positive response consisting of a wheal of at least 3 by 3 mm to one or more antigens, with an appropriately negative saline control. • Allergen Inhalation Challenge—The immediate (early) asthmatic response (EAR) or late asthmatic response (LAR) is studied under controlled conditions using inhaled antigenic challenge in volunteer patients with asthma using a previously described protocol (Smith et al., Clin. Pharm. Ther., 54:430-436, 1993). Atopic asthmatics undergo inhaled allergen challenge followed by BAL according to the following protocol. Subjects must have no lung disease other than asthma, and, on the day of testing, must have a baseline FEV1>70% of predicted. Subjects must not be receiving immunotherapy, nor may they be treated with cromolyn sodium or corticosteroids (inhaled or systemic) or leukotriene antagonist for a minimum of 4 wk. Short-acting antihistamines are avoided for at least 24 h and intermediate acting for 7 days (astemizole for 6 weeks). Theophylline preparations are withheld for 24 h prior to challenge and beta-agonists for 8 h prior to challenge. On the day of challenge, subjects must be wheeze-free, with an FEV1>than 80% of the previously observed highest value. If the patient has an intercurrent respiratory infection, inhalation challenge is postponed for at least 6 wk. Antigens to which the subject is perennially exposed (e.g., mite, cat) are utilized whenever possible to minimize the impact of seasonal variations in environmental exposure to the specific antigen. Further, antigen testing is conducted out of the respective allergen season, or after attempts to minimize environmental exposure (e.g., to mites or cats) have been implemented. Antigenic challenge generally begins between 7:30 and 8:00 am and the patient is monitored for a minimum of 12 h following antigenic challenge. […] The subject breathes quietly from a continuous hand-held nebulizer for 2 min at each concentration. Following each concentration, the FEV1 is measured at 5 min intervals (DS Plus, Warren E. Collins, Inc., Braintree, Mass.). […] Once a 20% drop in FEV1 is measured, or following the highest concentration, spirometry is performed every 15 min for the first hour and then hourly for the next 11 h.

For data set [5] the following is noted: in vivo. As to the method:
Serum is extracted from 2 ml of venous blood from donors. Briefly, blood samples are incubated at 37° C. for 30 min. Blood clots are removed from the serum by centrifugation (600×g, 10 min). Residual red blood cells are removed from the serum by centrifugation using a Beckman Microfuge E for 5 min. After the addition of 1.9 ml of water to a 0.1 ml aliquot of the serum, lipids are extracted by the method of Bligh and Dyer (Bligh and Dyer, Can. J. Biochem. Physiol., 37:911-920, 1959); Chilton et al., J. Biol. Chem., 258:7268-7271, 1983). A portion (5%) of the extracted lipids is used to determine the mole quantities of fatty acids by GC/MS. Serum components are isolated into individual glycerolipid classes by TLC (System II or normal phase HPLC (Bligh and Dyer, 1959).
Free fatty acids are obtained from glycerolipids by base hydrolysis using 2 N KOH (30 min, 60° C.). […] The carboxylate anion of all fatty acids of interest and [^2H3]-stearic acid and [^2H8]-arachidonate (internal standard) are analyzed by NICI GC/MS using a Hewlett Packard mass spectrometer (HP 5989A). […]
The next set of studies was designed to determine the distribution of supplemented fatty acids or their metabolites within individual glycerolipid classes of serum. […] Serum glycerolipids were separated by TLC and fractions were analyzed for fatty acid content following base hydrolysis by NICI-GC/MS.

The test system of data set [6] is neutrophils. How it is done: Free fatty acids are obtained from glycerolipids by base hydrolysis using 2 N KOH (30 min, 60° C.). After the addition of an equal volume of water, the pH of the reaction mixture is adjusted to 3 using 6 N HCl. Free fatty acids are then extracted with ethyl ether and converted to pentafluorobenzylesters using an equal volume of 20% pentafluorobenzylchloride in acetonitrile and 20% diisopropylethylamine in acetonitrile. The carboxylate anion of all fatty acids of interest and [^2H3]-stearic acid and [^2H8]-arachidonate (internal standard) are analyzed by NICI GC/MS using a Hewlett Packard mass spectrometer (HP 5989A).
Neutrophils were next obtained from subjects before and after supplementation and stimulated with ionophore A23187.

Data set [7] concerns neutrophils. As to conditions: 3.0 g/day GLA. How it is done: as §1
To examine this question, neutrophils were stimulated and the synthesis of LTB4, 20-OH LTB4, and the 6 trans isomers of LTB4 were measured by reverse phase HPLC analysis.
This is another data set of the same source.

In data set [8] the test system is human neutrophils. Briefly: In vitro metabolism of GLA / DGLA in cultured human neutrophils. The format is cell-based. How it is done: It is generally assumed that the liver has a key role in the in vivo elongation and desaturation of n-6 fatty acids. However, the role of other cells (especially inflammatory cells) and tissues has not been extensively studied. In addition, it is critical to evaluate the mechanism of leukotriene inhibition in less complex (than in vivo model) systems. To begin to address these problems, the inventor developed a model in which neutrophils could be incubated long-term with fatty acids or other fatty acid derivatives. Human neutrophils have been isolated and cultured overnight in RPMI, 2% insulin-transferrin and fetal bovine serum (FBS). In initial studies, varying concentrations of GLA (complexed to albumin) were provided to these cultured neutrophils for 24 h. […] In contrast, there was no change in the quantity of AA in neutrophil phospholipids. […] Furthermore, they provide direct evidence that the neutrophils themselves can elongate GLA […].
It has been long recognized that arachidonate is hydrolyzed from membrane glycerolipids by phospholipase A2 isotypes during cell stimulation. However, to date, there is little direct evidence that similar mechanisms exist to mobilize DGLA. To examine this question, neutrophils that had been cultured with varying concentrations of GLA (0 to 200 nmol) were stimulated with ionophore A23187, and mobilized fatty acids were measured by NICI GC/MS. […] To determine if neutrophils can further metabolize DGLA to oxygenated products, stimulated cells were provided [^14C]-DGLA and products were measured by reverse HPLC. […] FIG. 11 illustrates that A23187 stimulated neutrophils produce a labeled product that migrated with 15-HETrE.

The subject of another data set is human eosinophils. Particulars: eosinophils from atopic subjects incubated with GLA. How it is done: Eosinophils are purified by negative, immunomagnetic selection using monoclonals against FcKRIII (CD 16) present on neutrophils. Antibody tagged neutrophils are then incubated with anti-mouse IgG conjugated magnetic beads and removed by filtration over a magnetized steel wool column.
Therefore, it was important to determine how GLA was metabolized by human eosinophils. Thus, eosinophils were isolated from atopic subjects and incubated with GLA as described above.

The subject of data set [9] is atopic asthmatics. The data set can be described thus: Inhaled antigen challenge model of atopic asthma with prednisone. The format is in vivo, human. As to conditions: 40 mg prednisone daily for 7 days. An excerpt: Clinical data on each patient is entered into a database consisting of the following elements. Demographic data (age, sex, race, smoking history), and the data elements used to fulfill the above diagnostic criteria, spirometric data, presence of atopy (positive “prick” skin testing to respirable antigens), presence of LAR to inhaled antigen, and presence of allergic rhinoconjunctivitis. • Allergen skin testing—Atopic asthmatic subjects are identified by skin testing using the skin prick method at a 1:10 (wt/vol) dilution of 20 stock antigen solutions (Greer Laboratories, Lenoir, N.C.). Subjects must not be receiving immunotherapy, nor may they be treated with systemic corticosteroids for a minimum of 4 wk. Short acting antihistamines are avoided for at least 24 h and long acting for at least 7 days. […] Antigenic challenge generally begins between 7:30 and 8:00 am and the patient is monitored for a minimum of 12 h following antigenic challenge. […] Following each concentration, the FEV1 is measured at 5 min intervals (DS Plus, Warren E. Collins, Inc., Braintree, Mass.). […] Once a 20% drop in FEV1 is measured, or following the highest concentration, spirometry is performed every 15 min for the first hour and then hourly for the next 11 h.

Data set [10] has as its system human neutrophils. The data set can be described thus: In vitro metabolism of stearidonic acid in cultured human neutrophils. The format is cell-based. Particulars: 24 h. An excerpt:
As described above, human neutrophils (in vitro in overnight culture) will take up GLA and elongate it to DGLA but not further desaturate that DGLA to AA. An alternative route to depleting AA in neutrophils may also be useful in modulating the inflammatory responses mediated by AA and its metabolites. It was contemplated that the n-3 fatty acid, stearidonic acid (18:4) would also be elongated in neutrophils to form ω-3 arachidonic acid (FIG. 1). Varying concentrations of stearidonic acid were provided to cultured neutrophils for 24 h. Lipids were extracted and the quantities of fatty acids determined after base hydrolysis using GC/MS.

Where [11] appears, read: 4.5 g GLA as borage oil, 3 weeks, contemplated.

Entries after “also recorded” stand apart in the source; their conditions may differ. Read-outs that look alike come from different tables or passages of the source.

For the compound `CCCCCC(O)/C=C/C=C\C/C=C\CCCCCCC(=O)O` (centres unmarked) [15-HETrE, 15-OH-20:3, reference compound], the IC50 in [1] is around 5 µM.
With `CCCCC/C=C\C/C=C\C/C=C\CCCCCCC(=O)O` [DGLA, dihomogammalinolenic acid], the IC50 in data set [1] (Homo sapiens, Neutrophil) was around 10 µM.
On to `CC/C=C\C/C=C\C/C=C\C/C=C\C/C=C\CCCC(=O)O` [EPA, eicosapentaenoic acid], for which the inhibition at 50 µM in data set [2] amounted to 50%.
In the case of `CCCCC/C=C\C/C=C\C/C=C\CCCCC(=O)O` [GLA, gammalinolenic acid], the “reduction in PAF produced by neutrophils vs before supplementation” value in the data set with neutrophils [3] was 40%. Also, in the data set on atopic asthmatics [4] (setting [11]), the “antigen-induced urinary LTE4 and BALF AA increases” value is listed as “attenuate”; the “influx of eosinophils into airways during the LAR” value was “reduce”; the “response to antigen challenge (decrements in FEV1, immediate and late)” value is reported as “mitigate”. For the same compound, in the data set on atopic asthmatics [4] (four weeks GLA supplementation, compared to pre- and post-supplementation, two subjects), the “magnitude of the early asthmatic response” value is recorded as “diminished”. The late asthmatic response entry with atopic asthmatics [4] (four weeks GLA supplementation, two subjects) is on record as “did not influence”. Moreover, in [5], the “AA in serum lipids vs baseline” value is recorded as “significantly increased”. Moreover, the “increase in release of DGLA from stimulated neutrophils” value (“increase in release of DGLA” below) in the data set on neutrophils [6] (1.5 g/day GLA) worked out at 63%. Besides, the “increase in release of DGLA” value in the data set with neutrophils [6] (3.0 g/day GLA) came to 65%. In addition, in the data set on neutrophils [6] (6.0 g/day GLA), the “increase in release of DGLA” value stood at 69%. For the same compound, the “release of AA from neutrophil glycerolipids after A23187 stimulation” value in the data set on neutrophils [6] (following GLA supplementation) was “did not change”. Further, in the data set with neutrophils [7], the “20-OH LTB4, 6-trans LTB4 and 6-trans 12-epi LTB4 levels after supplementation” value is listed as “decreased to a similar degree”; the “reduction in LTB4 produced by stimulated neutrophils vs before supplementation” value is listed as 60%. Moreover, in the data set with human neutrophils [8] (cultured neutrophils, varying concentrations of GLA complexed to albumin, 24 h), the “quantity of DGLA in neutrophil glycerolipids” value is listed as “increased as a function of the concentration of GLA”. The “quantity of AA in neutrophil phospholipids” value in the data set with human neutrophils [8] (cultured neutrophils, varying concentrations of GLA, 24 h) is “no change”. Further, the “fatty acids mobilized on A23187 stimulation” value with human neutrophils [8] (neutrophils cultured with GLA (0 to 200 nmol)) is reported as “DGLA along with AA were released”. Also, in the data set with human eosinophils, the “DGLA in eosinophil glycerolipids” value is given as “marked increase” and the “quantity of AA in eosinophil glycerolipids” value is given as “no change”.
On to `C[C@]12C=CC(=O)C=C1CC[C@@H]1[C@@H]2C(=O)C[C@@]2(C)[C@H]1CC[C@]2(O)C(=O)CO` [prednisone], for which the “immediate response and LAR (fall in FEV1) after antigen challenge” value in the data set with atopic asthmatics [9] was “ablated”. In addition, the “level of eosinophil cationic protein (ECP) in BALF after antigen challenge” value with atopic asthmatics [9] (p=0.03) was “suppressed”.
Take `CC/C=C\C/C=C\C/C=C\C/C=C\CCCCC(=O)O` [stearidonic acid]: in the data set with human neutrophils [10], the AA in neutrophils result is reported as “nor was there an increase” and the “eicosapentaenoic acid (Δ5 desaturase product of ω-3 arachidonic acid) in neutrophils” value was “no increase”. The “ω-3 arachidonic acid in neutrophil glycerolipids” value in the data set on human neutrophils [10] (varying concentrations of stearidonic acid) was “dose-dependent increase; also recorded: dramatic increase”.
